# From patent publication US4656128A, “Modified alkaline phosphatase” (Research Corporation, priority 1985, dated 1987)
# How the values were obtained:
# [1] = target: T1, E. coli alkaline phosphatase, trypsin-modified (tm-AP; NH2-terminal 10 or 11 amino acids removed, cleaved at Arg-10 Ala-11) (Escherichia coli, UniProt P00634); test: Kinetic constants, hydrolysis of PNPP to p-nitrophenol; type: biochemical; conditions: trypsin-modified enzyme, 1M Tris HCl
# T1 construct: trypsin cleaves the Arg-10 Ala-11 bond leaving Ala as the NH2 -terminal residue; made in house; host or cells: E. coli strain CW3747 enzyme treated with trypsin, purified by chromatofocusing
# Procedure: The enzyme was assayed as described under "Materials and Methods" in Example I except that the assay solution contained K2 HPO4 at the indicated concentration and PNPP at concentrations ranging from 5×10^-6 to 1×10^-3 M.
# Enzyme and Chemicals - Alkaline phosphatase was isolated from E. coli strain CW3747 (A.T.C.C. 27256) according to the method described by Applebury et al. (Applebury, M. L. et al. J. Biol. Chem. 245: 4968 (1970)). Enzyme concentrations were determined spectrophotometrically at 278 nm using E1 cm^0.1% =0.72. Molar calculations were based on Mr =94,000. The enzyme activity was assayed as the rate of hydrolysis of PNPP^1 to p-nitrophenol. The reaction was monitored by following the increase in absorbance at 410 nm (Δε=1.62×10^4M^-1 cm^-1) in a solution of 1×10^-3 M PNPP, 1M Tris HCl, 10 mM MgCl2, 5×10^-5 M ZnCl2, pH 8.0, 20° C. […] Trypsin, PNPP, and carboxypeptidase Y were obtained from Sigma. […] All other chemicals employed were reagent grade.
# To prepare trypsin-modified alkaline phosphatase, native alkaline phosphatase (3 mg/ml) was treated with 10% (w/w) trypsin for 60 min at 20° C. and the major protein peak was isolated using the above chromatofocusing procedure.
# [2] = target: T2, E. coli alkaline phosphatase, native (strain CW3747) (Escherichia coli, UniProt P00634); test: as above; type: biochemical; conditions: native enzyme, 1M Tris HCl
# T2 construct: The monomer is an unglycosylated single chain of 449 amino acids in its mature form; made in house; host or cells: E. coli strain CW3747 (ATCC 27256), enzyme isolated by the method of Applebury et al. 1970
# Procedure: B, Native alkaline phosphatase, [K2 HPO4 ]-0 (0), 1×10^-5 M ( ), 3×10^-5 M (Δ). The enzyme was assayed as described under "Materials and Methods" in Example I except that the assay solution contained K2 HPO4 at the indicated concentration and PNPP at concentrations ranging from 5×10^-6 to 1×10^-3 M.
# Enzyme and Chemicals - Alkaline phosphatase was isolated from E. coli strain CW3747 (A.T.C.C. 27256) according to the method described by Applebury et al. (Applebury, M. L. et al. J. Biol. Chem. 245: 4968 (1970)). Enzyme concentrations were determined spectrophotometrically at 278 nm using E1 cm^0.1% =0.72. Molar calculations were based on Mr =94,000. The enzyme activity was assayed as the rate of hydrolysis of PNPP^1 to p-nitrophenol. The reaction was monitored by following the increase in absorbance at 410 nm (Δε=1.62×10^4M^-1 cm^-1) in a solution of 1×10^-3 M PNPP, 1M Tris HCl, 10 mM MgCl2, 5×10^-5 M ZnCl2, pH 8.0, 20° C.
# [3] = 10 mM MgCl2, 5×10^-5 M ZnCl2, pH 8.0, 20° C, PNPP 5×10^-6 to 1×10^-3 M
# T2 sequence (P00634 23-471): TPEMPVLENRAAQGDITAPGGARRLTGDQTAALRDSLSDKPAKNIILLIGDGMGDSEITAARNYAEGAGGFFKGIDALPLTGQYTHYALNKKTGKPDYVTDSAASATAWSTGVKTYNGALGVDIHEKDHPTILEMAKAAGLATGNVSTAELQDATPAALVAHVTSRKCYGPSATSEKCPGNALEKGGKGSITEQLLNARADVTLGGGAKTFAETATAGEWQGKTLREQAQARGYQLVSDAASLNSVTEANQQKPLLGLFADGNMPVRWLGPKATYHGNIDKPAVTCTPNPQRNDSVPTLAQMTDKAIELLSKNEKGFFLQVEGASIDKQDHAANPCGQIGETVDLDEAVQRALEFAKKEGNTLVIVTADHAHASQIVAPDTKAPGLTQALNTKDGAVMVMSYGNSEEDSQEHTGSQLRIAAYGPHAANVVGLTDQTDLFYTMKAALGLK
# T1 sequence (P00634 33-471): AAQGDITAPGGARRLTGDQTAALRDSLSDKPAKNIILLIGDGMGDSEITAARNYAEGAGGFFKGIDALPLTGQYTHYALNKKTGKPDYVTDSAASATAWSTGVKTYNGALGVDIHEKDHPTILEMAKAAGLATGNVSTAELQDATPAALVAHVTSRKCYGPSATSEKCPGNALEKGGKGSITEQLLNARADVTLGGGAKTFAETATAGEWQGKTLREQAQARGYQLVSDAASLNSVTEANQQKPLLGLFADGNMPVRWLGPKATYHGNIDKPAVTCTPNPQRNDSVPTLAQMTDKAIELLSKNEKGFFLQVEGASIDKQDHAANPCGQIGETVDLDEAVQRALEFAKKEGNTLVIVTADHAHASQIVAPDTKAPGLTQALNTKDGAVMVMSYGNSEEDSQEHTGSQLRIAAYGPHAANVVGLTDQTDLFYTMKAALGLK
compound,measurement,setting,value
"O=[N+]([O-])c1ccc(OP(=O)(O)O)cc1 [PNPP, p-nitrophenolphosphate]",Km,[1]; [3],19 µM
same,Vmax (PNPP),"[1]; pH 8.0, 20° C",2000 µmol/h/mg
same,Km,[2]; [3],40 µM
same,Vmax (PNPP),"[2]; pH 8.0, 20° C",2500 µmol/h/mg
